What was measured:
Experiment in all cases: relative viability (nuclei count vs DMSO), 5 days (fraction); higher = more cells survive
[1] = compound: CN[C@@H]1C[C@H]2O[C@@](C)([C@@H]1OC)n1c3ccccc3c3c4c(c5c6ccccc6n2c5c31)C(=O)NC4 [Staurosporine] + O=C(CCCCCCC(=O)Nc1ccccc1)NO [Vorinostat] (partner 1 µM)
Procedure, shortened: (§1)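 Relative viability is defined as nuclei in treated wells over nuclei in vehicle wells. Duplicate plates were run and medians reported. Lung cancer cell lines in 1536-well plates were dosed by pin tool one day after seeding, with one drug or with a fixed anchor-drug dose plus five library-drug doses (not always all listed) in √10 steps, and nuclei were counted after 5 days.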

[2] = compound: CC1=C(CC(=O)O)c2cc(F)ccc2/C1=C\c1ccc([S+](C)[O-])cc1 [Sulindac] + Cc1nc(NC(=O)N2CCC[C@H]2C(N)=O)sc1-c1ccnc(C(C)(C)C(F)(F)F)c1 [Alpelisib] (partner 2 µM)
Procedure, shortened: as §1

[3] = compound: CN[C@@H]1C[C@H]2O[C@@](C)([C@@H]1OC)n1c3ccccc3c3c4c(c5c6ccccc6n2c5c31)C(=O)NC4 [Staurosporine] + CC(=O)Nc1cccc(-n2c(=O)n(C3CC3)c(=O)c3c(Nc4ccc(I)cc4F)n(C)c(=O)c(C)c32)c1 [Trametinib] (partner 0.02 µM)
Procedure, shortened: as §1

[4] = compound: O=c1[nH]cc(F)c(=O)[nH]1 [5-Fluorouracil] + Cc1nc(Nc2ncc(C(=O)Nc3c(C)cccc3Cl)s2)cc(N2CCN(CCO)CC2)n1 [Dasatinib] (partner 0.075 µM)
Procedure, shortened: as §1

## NCI-H358
[1]; first compound 0.01581 µM
  relative viability: 0.165
[1]; first compound 0.05 µM
  relative viability: 0.0628
[1]; first compound 0.1581 µM
  relative viability: 0.0625
[1]; first compound 0.5 µM
  relative viability: 0.0709
[2]; first compound 0.08 µM
  relative viability: 1.01
[2]; first compound 0.253 µM
  relative viability: 0.878
[2]; first compound 0.8 µM
  relative viability: 0.684
[2]; first compound 2.53 µM
  relative viability: 0.808
[2]; first compound 8 µM
  relative viability: 1.1
[3]; first compound 0.005 µM
  relative viability: 0.157
[3]; first compound 0.01581 µM
  relative viability: 0.111
[3]; first compound 0.05 µM
  relative viability: 0.0885
[3]; first compound 0.1581 µM
  relative viability: 0.0815
[3]; first compound 0.5 µM
  relative viability: 0.0672
[4]; first compound 0.02 µM
  relative viability: 0.206
[4]; first compound 0.2 µM
  relative viability: 0.199
[4]; first compound 0.6325 µM
  relative viability: 0.2
[4]; first compound 2 µM
  relative viability: 0.161

## NCI-H1755
[1]; first compound 0.005 µM
  relative viability: 0.555
[1]; first compound 0.01581 µM
  relative viability: 0.477
[1]; first compound 0.05 µM
  relative viability: 0.223
[1]; first compound 0.1581 µM
  relative viability: 0.189
[1]; first compound 0.5 µM
  relative viability: 0.218
[2]; first compound 0.08 µM
  relative viability: 1.17
[2]; first compound 0.253 µM
  relative viability: 1.06
[2]; first compound 0.8 µM
  relative viability: 0.874
[2]; first compound 2.53 µM
  relative viability: 0.935
[2]; first compound 8 µM
  relative viability: 1
[3]; first compound 0.005 µM
  relative viability: 0.663
[3]; first compound 0.01581 µM
  relative viability: 0.479
[3]; first compound 0.05 µM
  relative viability: 0.263
[3]; first compound 0.1581 µM
  relative viability: 0.212
[3]; first compound 0.5 µM
  relative viability: 0.193
[4]; first compound 0.02 µM
  relative viability: 0.416
[4]; first compound 0.2 µM
  relative viability: 0.442
[4]; first compound 0.6325 µM
  relative viability: 0.247
[4]; first compound 2 µM
  relative viability: 0.184

## EPLC-272H
[1]; first compound 0.005 µM
  relative viability: 0.216
[1]; first compound 0.01581 µM
  relative viability: 0.141
[1]; first compound 0.05 µM
  relative viability: 0.0826
[1]; first compound 0.1581 µM
  relative viability: 0.0904
[1]; first compound 0.5 µM
  relative viability: 0.0549
[2]; first compound 0.08 µM
  relative viability: 0.759
[2]; first compound 0.8 µM
  relative viability: 0.618
[2]; first compound 2.53 µM
  relative viability: 0.985
[2]; first compound 8 µM
  relative viability: 1.03
[3]; first compound 0.005 µM
  relative viability: 0.291
[3]; first compound 0.01581 µM
  relative viability: 0.15
[3]; first compound 0.05 µM
  relative viability: 0.123
[3]; first compound 0.1581 µM
  relative viability: 0.067
[3]; first compound 0.5 µM
  relative viability: 0.0425
[4]; first compound 0.02 µM
  relative viability: 0.271
[4]; first compound 0.2 µM
  relative viability: 0.304
[4]; first compound 0.6325 µM
  relative viability: 0.234
[4]; first compound 2 µM
  relative viability: 0.129

## NCI-H2228
[1]; first compound 0.005 µM
  relative viability: 0.449
[1]; first compound 0.01581 µM
  relative viability: 0.188
[1]; first compound 0.05 µM
  relative viability: 0.126
[1]; first compound 0.1581 µM
  relative viability: 0.0779
[1]; first compound 0.5 µM
  relative viability: 0.0804
[2]; first compound 0.08 µM
  relative viability: 0.67
[2]; first compound 0.253 µM
  relative viability: 0.862
[2]; first compound 0.8 µM
  relative viability: 0.725
[2]; first compound 2.53 µM
  relative viability: 0.825
[2]; first compound 8 µM
  relative viability: 0.753
[3]; first compound 0.005 µM
  relative viability: 0.332
[3]; first compound 0.01581 µM
  relative viability: 0.089
[3]; first compound 0.05 µM
  relative viability: 0.169
[3]; first compound 0.1581 µM
  relative viability: 0.0671
[3]; first compound 0.5 µM
  relative viability: 0.0687
[4]; first compound 0.02 µM
  relative viability: 0.562
[4]; first compound 0.2 µM
  relative viability: 0.457
[4]; first compound 0.6325 µM
  relative viability: 0.349
[4]; first compound 2 µM
  relative viability: 0.268

From the supplement of paper PMC10307832
